Results on 19 molecules are retold here after patent US20130136719A1, “COMPOUNDS AND METHODS FOR THE TREATMENT OR PREVENTION OF FLAVIVIRUS INFECTIONS” (VERTEX PHARMACEUTICALS INCORPORATED, priority 2009, published 2013).

The target of series [1] is HCV RNA-dependent RNA polymerase (NS5B protein) (Hepatitis C virus genotype 1b, UniProt P26663). Put plainly: biochemical. More on the design: species or system HCV-Bk strain.
In series [2] the test system is HCV replicon (genotype 1b) in Huh7 cell line ET. Put plainly: microbe, parasite or virus in culture. The class given is cell-based, HCV genotype 1b. To be noted: read-out: HCV-Replicon-Luci-Et-1b_IC50. (In general: In antiviral work, replicon cells carry a viral genome segment that copies itself.)
The nature of series [3]: [3H]Thymidine incorporation assay (CC50). Conditions: human. In general terms: Incorporation of labelled thymidine or its analogues reports DNA synthesis.
The subject of series [4] is HCV sub-genomic replicon of genotype 1a in cell line W11.8. In words: microbe, parasite or virus in culture. The class given is cell-based, HCV genotype 1a. To be noted: Hepatitis C virus, W11.8, 96 h, read-out: HCV-Replicon-ELISA-1a IC50.

Read-outs that look alike come from different tables or passages of the source.

Sequence of HCV RNA-dependent RNA polymerase (NS5B protein) (P26663 2420-2989 limits assumed): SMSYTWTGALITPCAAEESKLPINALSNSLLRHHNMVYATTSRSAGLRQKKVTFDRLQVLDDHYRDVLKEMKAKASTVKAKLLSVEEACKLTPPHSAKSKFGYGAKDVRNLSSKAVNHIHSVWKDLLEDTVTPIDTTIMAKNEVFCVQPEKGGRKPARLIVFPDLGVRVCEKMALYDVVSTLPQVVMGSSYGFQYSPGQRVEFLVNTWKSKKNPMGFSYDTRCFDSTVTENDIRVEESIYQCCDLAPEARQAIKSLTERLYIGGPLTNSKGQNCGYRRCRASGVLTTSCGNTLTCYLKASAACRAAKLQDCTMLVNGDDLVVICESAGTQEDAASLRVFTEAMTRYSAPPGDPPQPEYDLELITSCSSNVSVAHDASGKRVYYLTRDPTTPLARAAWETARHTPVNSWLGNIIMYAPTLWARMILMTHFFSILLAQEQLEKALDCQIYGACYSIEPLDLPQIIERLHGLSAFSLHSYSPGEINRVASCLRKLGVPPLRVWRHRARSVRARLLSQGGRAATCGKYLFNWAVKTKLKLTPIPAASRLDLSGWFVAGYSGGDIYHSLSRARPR

Take `CC(C)N(C(=O)c1ccc(Cl)cc1Cl)c1cc(C#CC(C)(C)C)sc1C(=O)O` [Compound 1, 3-[(2,4-Dichloro-benzoyl)-isopropyl-amino]-5-(3,3-dimethyl-but-1-ynyl)-thiophene-2-carboxylic acid]: the IC50 in series [1] (read-out: HCV Polymerase_1b IC50, recombinant truncated NS5B genotype 1b, poly rA/oligo dT, [3H]UTP SPA) was in the range of 100 to 1000 nM; in series [2], 100 to 1000 nM.
Consider `CC(C)(C)C#Cc1cc(N(C(=O)c2ccc(Cl)cc2Cl)[C@H]2CC[C@H](O)CC2)c(C(=O)O)s1` [Compound 2, 3-[(2,4-Dichloro-benzoyl)-(trans-4-hydroxy-cyclohexyl)-amino]-5-(3,3-dimethyl-but-1-ynyl)-thiophene-2-carboxylic acid], for which the IC50 was 100 to 1000 nM in series [1] and < 100 nM in series [2] (Hepatitis C virus, Huh-7, 96 h).
`CC(C)(C)C#Cc1cc(N(C(=O)c2ccc(Cl)cc2)[C@H]2CC[C@H](O)CC2)c(C(=O)O)s1` [Compound 16, 3-[(4-Chloro-benzoyl)-(trans-4-hydroxy-cyclohexyl)-amino]-5-(3,3-dimethyl-but-1-ynyl)-thiophene-2-carboxylic acid] yielded an IC50 in series [1] of 100 to 1000 nM. For the same molecule, in series [3], the CC50 at 72 h lay in the range of 10000 to 100000 nM.
Turning to `CC(C)(C)C#Cc1cc(N(C(=O)c2ccc(Cl)cc2F)[C@H]2CC[C@H](O)CC2)c(C(=O)O)s1` [Compound 17, 3-[(4-Chloro-2-fluoro-benzoyl)-(trans-4-hydroxy-cyclohexyl)-amino]-5-(3,3-dimethyl-but-1-ynyl)-thiophene-2-carboxylic acid], the IC50 in series [1] is 1000 to 10000 nM; in series [2] (Hepatitis C virus, Huh-7, 96 h), < 100 nM.
For `Cc1ccc(C(=O)N(c2cc(C#CC(C)(C)C)sc2C(=O)O)[C@H]2CC[C@H](O)CC2)c(C)c1` [Compound 18, 3-[(2,4-Dimethyl-benzoyl)-(trans-4-hydroxy-cyclohexyl)-amino]-5-(3,3-dimethyl-but-1-ynyl)-thiophene-2-carboxylic acid], the IC50 was 100 to 1000 nM in series [1] and < 100 nM in series [2] (Hepatitis C virus, Huh-7, 96 h). In series [3], this molecule showed a CC50 at 72 h of 10000 to 100000 nM.
Consider `Cc1ccc(C(=O)N(c2cc(C#CC(C)(C)C)sc2C(=O)O)[C@H]2CC[C@H](O)CC2)cc1` [Compound 19, 5-(3,3-Dimethyl-but-1-ynyl)-3-[(trans-4-hydroxy-cyclohexyl)-(4-methyl-benzoyl)-amino]-thiophene-2-carboxylic acid], for which, in series [1], the IC50 was 1000 to 10000 nM.
In series [1], `CC(C)(C)C#Cc1cc(N(C(=O)c2ccc(C(F)(F)F)cc2)[C@H]2CC[C@H](O)CC2)c(C(=O)O)s1` [Compound 22] showed an IC50 of 1000 to 10000 nM.
As to `Cc1ccc(C(=O)N(c2cc(C#CC(C)(C)C)sc2C(=O)O)[C@H]2CC[C@H](O)CC2)cc1F` [Compound 24, 5-(3,3-Dimethyl-but-1-ynyl)-3-[(3-fluoro-4-methyl-benzoyl)-(trans-4-hydroxy-cyclohexyl)-amino]-thiophene-2-carboxylic acid], the IC50 in series [1] is 1000 to 10000 nM; in series [2] (Hepatitis C virus, Huh-7, 96 h) it was < 100 nM. The molecule also yielded a CC50 at 72 h in series [3] of 10000 to 100000 nM.
The like results for `CC(C)(C)C#Cc1cc(N(C(=O)c2ccc(Cl)cc2Cl)C2CCOCC2)c(C(=O)O)s1` [Compound 26, 3-[(2,4-Dichloro-benzoyl)-(tetrahydro-pyran-4-yl)-amino]-5-(3,3-dimethyl-but-1-ynyl)-thiophene-2-carboxylic acid] were, in that order, 1000 to 10000 nM, < 100 nM and 10000 to 100000 nM.
Consider `COCCN(C(=O)c1ccc(Cl)cc1Cl)c1cc(C#CC(C)(C)C)sc1C(=O)O` [Compound 44, 3-[(2,4-Dichloro-benzoyl)-(2-methoxy-ethyl)-amino]-5-(3,3-dimethyl-but-1-ynyl)-thiophene-2-carboxylic acid], for which the IC50 was 100 to 1000 nM in series [1]; < 100 nM in series [2] (Hepatitis C virus, Huh-7, 96 h); 100 to 1000 nM in series [4]. Further, the CC50 at 72 h in series [3] was in the range of 10000 to 100000 nM.
With `CC(C)(C)C#Cc1cc(N(C(=O)c2ccc(F)cc2)[C@H]2CC[C@H](O)CC2)c(C(=O)O)s1` [Compound 51, 5-(3,3-Dimethyl-but-1-ynyl)-3-[(4-fluoro-benzoyl)-(trans-4-hydroxy-cyclohexyl)-amino]-thiophene-2-carboxylic acid], the IC50 in series [1] was in the range of 1000 to 10000 nM. The CC50 at 72 h in series [3] was > 100000 nM.
In the case of `CC(C)(C)C#Cc1cc(N(C(=O)c2ccc(Cl)c(F)c2)[C@H]2CC[C@H](O)CC2)c(C(=O)O)s1` [Compound 52, 3-[(4-Chloro-3-fluoro-benzoyl)-(trans-4-hydroxy-cyclohexyl)-amino]-5-(3,3-dimethyl-but-1-ynyl)-thiophene-2-carboxylic acid], the IC50 in series [1] lay within 1000 to 10000 nM. The molecule also registered a CC50 at 72 h in series [3] of 10000 to 100000 nM.
`Cc1ccc(C(=O)N(c2cc(C#CC(C)(C)C)sc2C(=O)O)[C@H]2CC[C@H](O)CC2)c(Cl)c1` [Compound 53, 3-[(2-Chloro-4-methyl-benzoyl)-(trans-4-hydroxy-cyclohexyl)-amino]-5-(3,3-dimethyl-but-1-ynyl)-thiophene-2-carboxylic acid] came in with an IC50 in series [1] of 1000 to 10000 nM. Further, the CC50 at 72 h in series [3] was in the range of 10000 to 100000 nM.
`Cc1ccc(C(=O)N(c2cc(C#CC(C)(C)C)sc2C(=O)O)[C@H]2CC[C@H](O)CC2)c(F)c1` [Compound 54, 5-(3,3-Dimethyl-but-1-ynyl)-3-[(2-fluoro-4-methyl-benzoyl)-(trans-4-hydroxy-cyclohexyl)-amino]-thiophene-2-carboxylic acid] yielded an IC50 in series [1] of 1000 to 10000 nM.
In series [1], `CC(C)(C)C#Cc1cc(N(C(=O)c2ccccc2Cl)[C@H]2CC[C@H](O)CC2)c(C(=O)O)s1` [Compound 87, 3-[(2-Chloro-benzoyl)-(trans-4-hydroxy-cyclohexyl)-amino]-5-(3,3-dimethyl-but-1-ynyl)-thiophene-2-carboxylic acid] came in with an IC50 of 1000 to 10000 nM. Also, in series [3], the CC50 at 72 h was > 100000 nM.
For the molecule `Cc1ccccc1C(=O)N(c1cc(C#CC(C)(C)C)sc1C(=O)O)[C@H]1CC[C@H](O)CC1` [Compound 88, 5-(3,3-Dimethyl-but-1-ynyl)-3-[(trans-4-hydroxy-cyclohexyl)-(2-methyl-benzoyl)-amino]-thiophene-2-carboxylic acid], the IC50 in series [1] lay within 1000 to 10000 nM. In series [3], the CC50 at 72 h is > 100000 nM.
In the same order, the values of `Cc1ccc(C(=O)N(c2cc(C#CC(C)(C)C)sc2C(=O)O)[C@H]2CC[C@H](O)CC2)c(F)c1F` [Compound 89, 3-[(2,3-Difluoro-4-methyl-benzoyl)-(trans-4-hydroxy-cyclohexyl)-amino]-5-(3,3-dimethyl-but-1-ynyl)-thiophene-2-carboxylic acid] are 1000 to 10000 nM and 10000 to 100000 nM.
For the molecule `CC(C)N(C(=O)c1ccc(Cl)cc1Cl)c1cc(C#CC(C)(C)C)sc1C(=O)O` [Compound 96, Sodium 3-[(2,4-dichloro-benzoyl)-isopropyl-amino]-5-(3,3-dimethyl-but-1-ynyl)-thiophene-2-carboxylate], the IC50 in series [1] was 100 to 1000 nM; in series [2] (Hepatitis C virus, Huh-7, 96 h) it was < 100 nM. The molecule also gave a CC50 at 72 h in series [3] of 10000 to 100000 nM.
Regarding `CC(C)(C)C#Cc1cc(N(CCO)C(=O)c2ccc(Cl)cc2Cl)c(C(=O)O)s1` [Compound 97, 3-[(2,4-Dichloro-benzoyl)-(2-hydroxy-ethyl)-amino]-5-(3,3-dimethyl-but-1-ynyl)-thiophene-2-carboxylic acid], the IC50 lay in the range of 100 to 1000 nM in series [1] and 100 to 1000 nM in series [2] (Hepatitis C virus, Huh-7, 96 h). In series [3], this molecule came in with a CC50 at 72 h of 10000 to 100000 nM.
